Test results as given in patent US10086010B2 (STC.UNM, priority 2014, dated 2018).
Like-named read-outs stand apart in the source and are kept apart here.

Experiments:
[1] = system: HT-29 cells; test: WST-1 cell growth/viability assay, HT-29; assay type: cell-based, human; conditions: for effect of PARP inhibitor on the reduction in succinate-tetrazolium reductase activity by 5-FU and hmUdR: inhibitor added simultaneously with 5-FU and hmUdR; for GI50: Homo sapiens, HT-29, 72 h, 72 hours
Method: Indicated concentrations of drugs were added to wells one day after seeding. […] Cell proliferation was quantitated by measuring 450 nm absorbance and 600 nm as a background. All assays were performed in triplicate. […] The minimal combination index […] for each cell line was obtained from the isobologram parameters.

[2] = system: HT-29 cells; test: Alkaline comet assay (single-strand breaks); assay type: cell-based, human; conditions: 48 h; for number of DNA single-strand breaks: 0.5 μM 5-FU and/or 5 μM hmUdR
Method: (§1) After incubation for indicated time periods (12-48 h), the cells were trypsinized and washed in PBS. For time course experiments, cells harvested at each time point were stored in 10% DMSO/40% DMEM/50% FBS at −80° C. until slide processing. Approximately 5,000 cells were spread in 0.9% low-melting point agarose/PBS on CometSlide (Trevigen), and chilled at 4° C. in the dark for 20 min.
For alkaline comet assay, slides were soaked in precooled lysis buffer containing 2.5 M NaCl/100 mM EDTA/10 mM Tris/1% sarkosyl/1% Triton X-100 at 4° C. for 45 min, followed by soaking in precooled 300 mM NaOH/1 mM EDTA at 4° C. for 45 min. Subsequently, slides were electrophoresed in 300 mM NaOH/1 mM EDTA at 1.4 V/cm for 20 min at 4° C., washed in 70% ethanol for 5 min, and allowed to dry in the dark. Cellular DNA was stained with 1×SYBR Green I (Molecular Probes) 30 min before analysis with a fluorescence microscope. Alkaline comet assays were performed in triplicate and more than 30 comets for each condition were photographed at the Light Microscope Facility at Fox Chase Cancer Center, and analyzed by CometScore software (TriTek).

[3] = system: HT-29 cells; test: Cell cycle analysis by flow cytometry; assay type: cell-based, human
Method: HT-29 cells that were seeded at 2×10^6 cells/plate in 10 cm dishes and incubated with 20 ng/ml nocodazole for 18 h. […] The synchronized cells were washed with PBS prior to the addition of fresh medium containing the indicated nucleosides and/or bases.
Cells grown in 10 cm dishes were trypsinized, spun down and suspended in 10 ml PBS containing 0.5% FBS. […], the cells were resuspended in 0.5 ml PBS/0.5% FBS, and fixed in 5 ml 70% ethanol at −20° C. […] and washing with 10 ml PBS/0.5% FBS, the cells were suspended in 1.5 ml PBS/0.5% FBS containing 10 μg/ml propidium iodide and 50 μg/ml RNase A, and incubated at 37° C. for 30 min. Cell cycle distribution was analyzed with a FACScan flow analyzer (Becton Dickinson).

[4] = system: HT-29 cells; test: CyQUANT cell proliferation assay; assay type: cell-based, human; conditions: 3AB present with 5-FU and hmUdR for 72 h
Method: Cell proliferation assays measuring genomic DNA were carried out using the CyQUANT kit (Invitrogen). In these experiments, the cells after drug treatments were replated to grow in the absence of the drugs for six days, and their nucleic acids was quantitated by CyQUANT assay. These assays were also conducted in triplicate.

[5] = system: HT-29 cells; test: Neutral comet assay (double-strand breaks); assay type: cell-based, human; conditions: 0.5 μM FU and/or 5 μM hmUdR, 48 h
Method: as §1
For neutral comet assay, slides were soaked in precooled lysis buffer at 4° C. for 30 min, followed by washing in precooled 1×TBE buffer (90 mM Tris-borate, pH8.3, 2 mM EDTA). Slides were electrophoresed in 1×TBE buffer at 2 V/cm for 20 min at 4° C., rinsed in deionized water, washed in 70% ethanol for 5 min, and allowed to dry in the dark. Subsequently, slides were processed as above for DNA staining and comet analyses. Neutral comet assays were conducted in duplicate, in each of which more than 60 comets for each condition were analyzed.

[6] = system: HT-29 cells expressing GFP-H2B; test: Time-lapse microscopy of cell divisions; assay type: cell-based, human; conditions: 0.5 μM 5-FU and/or 5 μM hmUdR
Method: HT-29 cells were infected with a retroviral vector for expression of […] histone H2B. HT-29 cells expressing GFP-H2B were seeded at 2×10^5 cells/well in 6-well plates. On the following day, drug treatments were initiated and cell proliferation was monitored by time-lapse microscopy. Image acquisition was done at the Light Microscope Facility at Fox Chase Cancer Center using phase-contrast and GFP-specific fluorescence microscopy (Nikon TE2000S) controlled by Metamorph (Molecular Devices). Images were captured at a rate of one frame per 15 minutes for 60 hours, in which cells were kept at 37° C. Images were captured from 10 areas per well. The number of cell divisions that occurred in each area was counted for the first 24 h and the second 24 h periods.

[7] = system: HT-29 cellular DNA; test: Quantitation of 5-FU and hmUdR incorporated into cellular DNA; assay type: cell-based, human; conditions: at 48 h
Method: [6-^3H]-5-FU (18 Ci/mmol) and of [^3H]-hmUdR (10 Ci/mmole) were purchased from Moravek Biochemicals. […] At 24 or 48 h after drug addition, cells were washed with PBS and their DNA was recovered with Trizol (Invitrogen) according to the manufacturer's instruction. Subsequently the recovered DNA was quantitated by 260 nm absorbance, and its radioactivity was measured by liquid scintillation counting.

[8] = system: human CRC HT-29 cells; test: Cell growth assay, Example 2; assay type: cell-based
[9] = system: PARP1; test: Immunoblot detection of PARP1 cleavage; assay type: cell-based, human; conditions: 5-FU and hmUdR 72 h; control 50 μM LY294002 1 h followed by 4 h 100 μg/ml TRAIL
Method: After […] on ice, cells were scraped and […] for 10 min at 4° C. The supernatant was recovered. This whole cell extract (50 μg protein) was subjected to SDS-containing polyacrylamide gel electrophoresis, and transferred to Immobilon-P membrane (Millipore). For detection of poly(ADP-ribose), the nuclear pellet was recovered after removing the whole cell extract as prepared above except that the lysis buffer was supplemented with 50 μM ethacridine, an inhibitor of poly(ADP-ribose) glycohydrolase. 10 μg protein of the nuclear pellet was subjected to gel electrophoresis and transfer to membrane as described above. Primary antibodies used in this study were anti-PARP1 monoclonal mouse antibody (Trevigen), anti-p62 polyclonal rabbit antibody (Santa Cruz Biotechnology), anti-LC3 polyclonal rabbit antibody (Novus Biologicals), anti-β-actin monoclonal mouse antibody (Sigma), and anti-PCNA monoclonal antibody (PC10; Santa Cruz Biotechnology), anti-poly(ADP-ribose) mouse monoclonal antibody (Tulip Biolabs). […] Immunoblot signals were detected either by Odyssey Imaging System (LI-COR Biotechnology) or by exposure of X-ray films to the membrane soaked in ECL reagent (GE Healthcare).

[10] = 5 mM caffeine for the last 24 h
[11] = 0.5 μM 5-FU + 5 μM hmUdR, WST-1

NC(=O)c1cccc(N)c1 [3AB, 3-aminobenzamide]
effect of PARP inhibitor on the reduction in succinate-tetrazolium reductase activity by 5-FU and hmUdR [1]: partially corrected
effect of 3AB on the number of strand breaks caused by 5-FU and hmUdR ([2]; 3 mM 3AB, 0.5 μM 5-FU, 5 μM hmUdR): significantly decreased
effect of 3AB on the S phase arrest induced by 5-FU and hmUdR ([3]; 3 mM 3AB added simultaneously with 0.5 μM 5-FU and 5 μM hmUdR): enabled most cells to progress through S phase to G2/M
rescue of the effect of 5-FU and hmUdR on cell proliferation (CyQUANT) [4]: did not rescue

Cn1c(=O)c2c(ncn2C)n(C)c1=O [caffeine]
effect of caffeine on the S phase arrest induced by 5-FU alone [3, 10]: abolished
effect of caffeine on the S phase arrest induced by the combination of 5-FU and hmUdR [3, 10]: resistant
effect of caffeine on the G2/M arrest of cells incubated with 3AB, 5-FU and hmUdR ([3]; unsynchronized HT-29 cells): partially released the G2/M arrest

O=c1[nH]c(=O)n([C@H]2C[C@H](O)[C@@H](CO)O2)cc1CCO [heUdR, 5-hydroxyethyl-2′-deoxyuridine]
enhancement of 5-FU activity / synergy with 5-FU ([1]; HT-29, 72 hours): neither UdR nor heUdR significantly enhanced

COC(=O)CC(NC(=O)C(NC(=O)c1ccc2ccccc2n1)C(C)C)C(=O)COc1c(F)cccc1F (stereo not shown) [QVD, Quinolyl-valyl-O-methylaspartyl-[-2,6-difluorophenoxy]-methyl ketone]
effect of caspase inhibitor on the growth inhibition effect of 5-FU and hmUdR [1, 11]: did not diminish

O=c1ccn([C@H]2C[C@H](O)[C@@H](CO)O2)c(=O)[nH]1 [UdR, 2′-deoxyuridine]
enhancement of 5-FU activity / synergy with 5-FU ([1]; HT-29, 72 hours): neither UdR nor heUdR significantly enhanced

O=Cc1cn([C@H]2C[C@H](O)[C@@H](CO)O2)c(=O)[nH]c1=O [foUdR, 5-formyl-2′-deoxyuridine]
activity with 5-FU relative to hmUdR ([1]; HT-29, 72 hours): comparable
enhancement of 5-FU activity / synergy with 5-FU ([1]; HT-29, 72 hours): acted synergistically

O=c1[nH]c(=O)n([C@H]2C[C@H](O)[C@@H](CO)O2)cc1O [hUdR, 5-hydroxy-2′-deoxyuridine]
enhancement of 5-FU activity / synergy with 5-FU ([1]; HT-29, 72 hours): to a lesser extent, hUdR (FIG. 5E) acted synergistically

O=c1[nH]c(=O)n([C@H]2C[C@H](O)[C@@H](CO)O2)cc1CO [hmUdR, 5-Hydroxymethyl-2′-deoxyuridine]
number of DNA single-strand breaks [2]: did not significantly increase
number of double strand breaks [5]: increased
cell cycle distribution ([3]; unsynchronized HT-29 cells, 5 μM hmUdR alone, 48 h): did not change the cell cycle distribution
number of cell divisions per view field, second 24 h period relative to first 24 h period [6]: 1.4±0.2 times

O=c1[nH]cc(F)c(=O)[nH]1 [5-FU, 5-fluorouracil]
GI50 ([1]; read-out: GI50 of HT-29 cells for 5-FU, 5-FU alone): 19 µM
GI50 ([1]; read-out: GI50 of HT-29 cells for 5-FU, combined with hmUdR): < 0.1 µM
number of DNA single-strand breaks [2]: did not significantly increase
number of double strand breaks [5]: no significant effect
incorporation of 5-FU into cellular DNA in the presence of hmUdR [7]: decreased
cells accumulated in S phase ([3]; unsynchronized HT-29 cells, 0.5 μM 5-FU and/or 5 μM hmUdR, 48 h): 52%
effect on HT-29 cell growth of increasing concentration in the absence of fdU [8]: minimal effect

O=c1[nH]cc(CO)c(=O)[nH]1 [5-hydroxymethyluracil]
enhancement of 5-FU activity / synergy with 5-FU ([1]; HT-29, 72 hours): did not significantly enhance

C[C@]1(c2nc3c(C(N)=O)cccc3[nH]2)CCCN1 [ABT-888]
effect of PARP inhibitor on the reduction in succinate-tetrazolium reductase activity by 5-FU and hmUdR [1]: partially corrected

CN1C(=O)C(Cc2c[nH]c3ccccc23)NC1=S (stereo not shown) [Nec-1]
effect of necroptosis inhibitor on the growth inhibition effect of 5-FU and hmUdR [1, 11]: did not reduce

B1: TRAIL: used with LY294002 as positive control for PARP1 cleavage; known to cause apoptosis (protein, UniProt P50591 1-281, looked up)
Tumor necrosis factor ligand …: MAMMEVQGGPSLGQTCVLIVIFTVLLQSLCVAVTYVYFTNELKQMQDKYSKSGIACFLKEDDSYWDPNDEESMNSPCWQVKWQLRQLVRKMILRTSEETISTVQEKQQNISPLVRERGPQRVAAHITGTRGRSNTLSSPNSKNEKALGRKINSWESSRSGHSFLSNLHLRNGELVIHEKGFYYIYSQTYFRFQEEIKENTKNDKQMVQYIYKYTSYPDPILLMKSARNSCWSKDAEYGLYSIYQGGIFELKENDRIFVSVTNEHLIDMDHEASFFGAFLVG
PARP1 cleavage (characteristic of apoptosis) [9]: induced
